The text below walks through data of patent publication US12077503B2, “Substituted cyclic amides and their use as herbicides” (FMC CORPORATION, priority 2015, dated 2024).

What all share (type): in vivo
The subject of assay [1] is Kochia (Kochia scoparia). The assay can be described thus: Test A preemergence. The following applies: Bassia scoparia, pre-emergence, 240 h. In outline: (§1)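 Each rating is a visual injury score from 0 to 100 given about 10 d after treatment, judged against untreated controls kept alongside in the greenhouse. In loam soil–sand blend, seeds got a preemergence directed soil spray, while postemergence plants were 2 to 10 cm tall at spraying.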

The subject of assay [2] is barnyardgrass (Echinochloa crus-galli). The assay can be described thus: Test A preemergence. The conditions noted are these: Echinochloa crus-galli, pre-emergence, 240 h. In outline:
as §1

The test system of assay [3] is giant foxtail (Setaria faberii). The assay can be described thus: Test A preemergence. The following applies: Setaria faberi, pre-emergence, 240 h. In outline: as §1
The test system of assay [4] is pigweed (Amaranthus retroflexus). The assay can be described thus: Test A preemergence. The following applies: Amaranthus retroflexus, pre-emergence, 240 h.
The subject of assay [5] is ragweed (common ragweed, Ambrosia elatior). The assay can be described thus: Test A preemergence. The following applies: Ambrosia artemisiifolia, pre-emergence, 240 h. In outline:
as §1

Assay [6] deals with ryegrass, Italian (Italian ryegrass, Lolium multiflorum). The assay can be described thus: Test A preemergence. The conditions noted are these: Lolium multiflorum, pre-emergence, 240 h. The method, boiled down:
as §1

For assay [7], the system named is Galium (catchweed bedstraw, Galium aparine). The assay can be described thus: Test A postemergence. The conditions noted are these: Galium, post-emergence, 240 h, 125 g ai/ha, Postemergence; visual injury after approximately 10 d; 0 to 100 scale where 0 is no effect and 100 is complete control; read-out: Plant response rating, Galium. The method, boiled down:
as §1

The subject of assay [8] is Kochia (Kochia scoparia). The assay can be described thus: Test A postemergence. The following applies: Bassia scoparia, post-emergence, 240 h, 125 g ai/ha, Postemergence; visual injury after approximately 10 d; 0 to 100 scale where 0 is no effect and 100 is complete control; read-out: Plant response rating, Kochia. The method, boiled down:
as §1

Assay [9] relates to barnyardgrass (Echinochloa crus-galli). The assay can be described thus: Test A postemergence. The following applies: Echinochloa crus-galli, post-emergence, 240 h, 125 g ai/ha, Postemergence; visual injury after approximately 10 d; 0 to 100 scale where 0 is no effect and 100 is complete control; read-out: Plant response rating, Barnyardgrass. In outline: as §1
The next assay deals with corn (Zea mays). The assay can be described thus: Test A postemergence. The following applies: Zea mays, post-emergence, 240 h, 125 g ai/ha, Postemergence; visual injury after approximately 10 d; 0 to 100 scale where 0 is no effect and 100 is complete control. The method, boiled down: as §1
In assay [10] the test system is giant foxtail (Setaria faberii). The assay can be described thus: Test A postemergence. The conditions noted are these: Setaria faberi, post-emergence, 240 h, 125 g ai/ha, Postemergence; visual injury after approximately 10 d; 0 to 100 scale where 0 is no effect and 100 is complete control; read-out: Plant response rating, Foxtail, Giant. The method, boiled down:
as §1

In assay [11] the test system is pigweed (Amaranthus retroflexus). The assay can be described thus: Test A postemergence. The following applies: Amaranthus retroflexus, post-emergence, 240 h, 125 g ai/ha, Postemergence; visual injury after approximately 10 d; 0 to 100 scale where 0 is no effect and 100 is complete control; read-out: Plant response rating, Pigweed. The method, boiled down:
as §1

Assay [12] deals with ragweed (common ragweed, Ambrosia elatior). The assay can be described thus: Test A postemergence. The conditions noted are these: Ambrosia artemisiifolia, post-emergence, 240 h, 125 g ai/ha, Postemergence; visual injury after approximately 10 d; 0 to 100 scale where 0 is no effect and 100 is complete control; read-out: Plant response rating, Ragweed. The method, boiled down: as §1

The subject of assay [13] is ryegrass, Italian (Italian ryegrass, Lolium multiflorum). The assay can be described thus: Test A postemergence. The following applies: Lolium multiflorum, post-emergence, 240 h, 125 g ai/ha, Postemergence; visual injury after approximately 10 d; 0 to 100 scale where 0 is no effect and 100 is complete control; read-out: Plant response rating, Ryegrass, Italian. The method, boiled down: as §1

Assay [14] has as its system wheat (Triticum aestivum). The assay can be described thus: Test A postemergence. The conditions noted are these: Triticum aestivum, post-emergence, 240 h, 125 g ai/ha, Postemergence; visual injury after approximately 10 d; 0 to 100 scale where 0 is no effect and 100 is complete control; read-out: Plant response rating, Wheat. The method, boiled down:
as §1

`CN1CC[C@H](c2cccc(C(F)(F)F)c2)[C@@H](C(=O)Nc2ccccc2S(C)(=O)=O)C1=O` [Compound 920]: the pest or weed control at 125 g/ha in the assay with Kochia (Kochia scoparia) [1] (125 g ai/ha, preemergence, 0 to 100 scale where 0 is no effect and 100 is complete control, read-out: Kochia plant response rating) is 0%; in assay [2] (125 g ai/ha, preemergence, 0 to 100 scale where 0 is no effect and 100 is complete control, read-out: Barnyardgrass plant response rating), 70%; in assay [3] (125 g ai/ha, preemergence, 0 to 100 scale where 0 is no effect and 100 is complete control, read-out: Foxtail, Giant plant response rating), 80%; in assay [4] (125 g ai/ha, preemergence, 0 to 100 scale where 0 is no effect and 100 is complete control, read-out: Pigweed plant response rating) it was 0%; in assay [5] (125 g ai/ha, preemergence, 0 to 100 scale where 0 is no effect and 100 is complete control, read-out: Ragweed plant response rating), 0%; in assay [6] (125 g ai/ha, preemergence, 0 to 100 scale where 0 is no effect and 100 is complete control, read-out: Ryegrass, Italian plant response rating) it was 0%. The pest or weed control at 125 g/ha was found to be 0% in assay [7]; 0% in the assay with Kochia (Kochia scoparia) [8]; 40% in [9]; 20% in [10]; 0% in assay [11]; 0% in assay [12]. Moreover, the pest or weed control at 125 g/ha in [13] came out at 0%. In addition, the pest or weed control at 500 g/ha with Kochia (Kochia scoparia) [1] (500 g ai/ha, Preemergence, visual injury vs untreated controls after approximately 10 d, read-out: Kochia plant response rating (0 to 100 scale where 0 is no effect and 100 is complete control)) came out at 0%; in assay [2] (500 g ai/ha, Preemergence, visual injury vs untreated controls after approximately 10 d, read-out: Barnyardgrass plant response rating (0 to 100 scale where 0 is no effect and 100 is complete control)), 90%; in [3] (500 g ai/ha, Preemergence, visual injury vs untreated controls after approximately 10 d, read-out: Foxtail, Giant plant response rating (0 to 100 scale where 0 is no effect and 100 is complete control)), 90%; in assay [4] (500 g ai/ha, Preemergence, visual injury vs untreated controls after approximately 10 d, read-out: Pigweed plant response rating (0 to 100 scale where 0 is no effect and 100 is complete control)) it was 0%; in assay [5] (500 g ai/ha, Preemergence, visual injury vs untreated controls after approximately 10 d, read-out: Ragweed plant response rating (0 to 100 scale where 0 is no effect and 100 is complete control)), 0%; in assay [6] (500 g ai/ha, Preemergence, visual injury vs untreated controls after approximately 10 d, read-out: Ryegrass, Italian plant response rating (0 to 100 scale where 0 is no effect and 100 is complete control)) it was 0%. In the assay on corn (Zea mays), the Corn plant response rating (crop injury, 0 = no effect, 100 = complete kill) at 125 g/ha was 0%. Further, in assay [14], the plant injury at 125 g/ha came out at 0%.
